Measurements taken from patent EP0299434B1, “High pH recovery of neutral amino acids” (GENENCOR INTERNATIONAL, INC., priority 1987, dated 1989).

Experiment: solution pKa (pH at which the solubility versus pH curve changes slope)
Type: physicochemical
Source text: The theoretical pKa of a neutral amino acid is a rigorously defined parameter which is independent of temperature and the presence of other components. In accordance with the present invention, the important pKa is the solution pKa which takes into account the actual characteristics of the solution. Thus, the pKa of the neutral amino acid in the actual solution from which it is desired to precipitate the amino acid must be measured. The "solution pKa" is the pH at which the solubility versus pH curve for the solution in question changes slope. For example, if the log of the concentration at saturation is plotted versus pH, two straight line portions of the curve will be noted. The intersection of these straight line portions when extended is considered to be the solution pKa of this solution under the conditions of the test. The solution pKa will depend on the other components in the solution, for example the base that might be present, the temperature and other factors.

pKa (ion exchange eluate concentrated by reverse osmosis, 37°C, ion exchange eluate concentrated by reverse osmosis (Example 4)): ~8.9
pKa (ion exchange eluate evaporated at 60°C, ion exchange eluate evaporated at 60°C (Example 6)): ~8.2
pKa (ion exchange eluate redissolved with ammonium hydroxide, 30°C, ammonia stripping): 9
pKa (ion exchange eluate redissolved with ammonium hydroxide, 39°C, ammonia stripping): 8.8
pKa (ion exchange eluate redissolved with ammonium hydroxide, 55°C, ammonia stripping): 8.4
pKa (saturation curve of Fig. 1): ~9.2
Structure (SMILES): N[C@@H](Cc1c[nH]c2ccccc12)C(=O)O [tryptophan]
